{"source": "patent US20250388542A1", "about": "“ANALOGUES OF PENTAMIDINE AND USES THEREFOR” (Auransa Inc., priority 2018, published 2025)", "assay_type_in_all_cases": "cell-based", "key": {"SK-HEP-1 [1]": {"test_system": "SK-HEP-1", "test": "CellTiter-Glo cell viability, liver cell lines, 8 days", "conditions": "Homo sapiens", "description": "(§1) The objective of this study is to investigate the effect of Compound 1 on cell viability of various types of liver cancer. Ten (10) different liver cancer cell lines were employed in the study. Each liver cell line shown in Table 4 was treated with Compound 1, pentamidine, as reference control, a standard of care (cisplatin) and culture medium contains 0.2% [v/v] DMSO vehicle control and IC50 values were obtained as described above. The raw data values from the CellTiter-Glo™ cell viability assay expressed in relative luminescence units were normalized to the vehicle for each individual plate, and any reduction in luminescence indicated a decrease in viability (%). The data was analyzed in GraphPad PRISM using a non-linear sigmoidal plot with variable slope (asymmetric four-point linear regression), and an IC50 value for each compound was generated. The experiment tested pentamidine, compound 1, and standard-of-care control Cisplatin in full growth media for 8 days. Cells were initially treated with the test compounds on Day 0, and the cells were then replenished with fresh compound dilutions on Day 3. Pentamidine, Compound 1, and cisplatin were tested at 9 concentration points; 100, 33.33, 11.11, 3.70, 1.23, 0.41, 0.14, 0.05, and 0.02 μM (final DMSO concentration=0.5%). In particular, the IC50 values of pentamidine and Compound 1 were 0.8 and 0.6 μM in Hep3B-luc, respectively."}, "HUH7": {"test_system": "HUH7", "test": "CellTiter-Glo cell viability, liver cell lines, 8 days", "conditions": "Homo sapiens, Huh-7, 192 h; HUH7, 8 days", "description": "as §1"}, "HCCLM3 [2]": {"test_system": "HCCLM3", "test": "CellTiter-Glo cell viability, liver cell lines, 8 days", "conditions": "Homo sapiens, 192 h; HCCLM3, 8 days", "description": "as §1"}, "HEP3B2.7-1": {"test_system": "HEP3B2.7-1", "test": "CellTiter-Glo cell viability, liver cell lines, 8 days", "conditions": "HEP3B2.7-1, Table 4", "description": "as §1"}, "HUH1": {"test_system": "HUH1", "test": "CellTiter-Glo cell viability, liver cell lines, 8 days", "conditions": "Homo sapiens, HuH-1, 192 h; HUH1, 8 days", "description": "as §1"}, "MHCC97H": {"test_system": "MHCC97H", "test": "CellTiter-Glo cell viability, liver cell lines, 8 days", "conditions": "Homo sapiens, 192 h", "description": "as §1"}, "Hep3B": {"test_system": "Hep3B", "test": "CellTiter-Glo cell viability, liver cell lines, 8 days", "conditions": "Homo sapiens, 192 h", "description": "as §1"}, "HepG2": {"test_system": "HepG2", "test": "CellTiter-Glo cell viability, liver cell lines, 8 days", "conditions": "Homo sapiens, 192 h; HepG2, 8 days", "description": "as §1"}, "RBE": {"test_system": "RBE", "test": "CellTiter-Glo cytotoxicity, cancer cell line panel", "conditions": "Intrahepatic cholangiocarcinoma", "description": "(§2) The objective of this study is to investigate potential cell killing effect of Compounds 1-15 on 3 cancer cell lines. 50% inhibition concentration (IC50) was determined for these compounds in various cancer cell lines using CellTiter-Glo™ luminescent cell viability assay at different compound concentrations. Each cell line (e.g., NCI-H209; NCI-H69; and SW1271) was treated with Compounds 1-15 and culture medium contains 0.2% [v/v] DMSO vehicle control. All the cells were cultured in the media supplemented with 10-20% fetal bovine serum at 37° C., 5% CO2 and 95% humidity.\n(§3) The objective of this study is to investigate the effect of Compound 1 on cytotoxicity against 61 different types of cancer cell lines. IC50 were values were obtained using CellTiter-Glo™ as described above. Each cell line shown in Table 3 was treated with Compound 1, a standard chemotherapy drug, cisplatin, as reference control and culture medium contains 0.2% [v/v] DMSO vehicle control. All cancer cell lines were cultured in media supplemented with 10-20% fetal bovine serum at 37° C., 5% CO2 and 95% humidity."}, "HLF": {"test_system": "HLF", "test": "CellTiter-Glo cytotoxicity, cancer cell line panel", "conditions": "Hepatocellular carcinoma", "description": "as §2, §3"}, "SK-HEP-1 [3]": {"test_system": "SK-HEP-1", "test": "CellTiter-Glo cytotoxicity, cancer cell line panel", "conditions": "Homo sapiens, SK-HEP1; SK-HEP-1, Hepatocellular carcinoma", "description": "as §2, §3"}, "SNU-739": {"test_system": "SNU-739", "test": "CellTiter-Glo cytotoxicity, cancer cell line panel", "conditions": "SNU-739, Hepatocellular carcinoma", "description": "as §2, §3"}, "PLC/PRF/5": {"test_system": "PLC/PRF/5", "test": "CellTiter-Glo cytotoxicity, cancer cell line panel", "conditions": "Homo sapiens; PLC/PRF/5, Hepatocellular carcinoma", "description": "as §2, §3"}, "HCCLM3 [4]": {"test_system": "HCCLM3", "test": "CellTiter-Glo cytotoxicity, cancer cell line panel", "conditions": "Homo sapiens; HCCLM3, Hepatocellular carcinoma", "description": "as §2, §3"}, "JHH-5": {"test_system": "JHH-5", "test": "CellTiter-Glo cytotoxicity, cancer cell line panel", "conditions": "JHH-5, Hepatocellular carcinoma", "description": "as §2, §3"}, "SNU-398": {"test_system": "SNU-398", "test": "CellTiter-Glo cytotoxicity, cancer cell line panel", "conditions": "Homo sapiens; SNU-398, Hepatocellular carcinoma", "description": "as §2, §3"}, "LNCaP clone FGC": {"test_system": "LNCaP clone FGC", "test": "CellTiter-Glo cytotoxicity, cancer cell line panel", "conditions": "Homo sapiens, Prostate carcinoma", "description": "as §2, §3"}, "JHH-6": {"test_system": "JHH-6", "test": "CellTiter-Glo cytotoxicity, cancer cell line panel", "conditions": "JHH-6, Hepatocellular carcinoma", "description": "as §2, §3"}, "SK-OV-3": {"test_system": "SK-OV-3", "test": "CellTiter-Glo cytotoxicity, cancer cell line panel", "conditions": "Homo sapiens; SK-OV-3, Ovarian serous cystadenocarcinoma", "description": "as §2, §3"}, "OS-RC-2": {"test_system": "OS-RC-2", "test": "CellTiter-Glo cytotoxicity, cancer cell line panel", "conditions": "Homo sapiens; OS-RC-2, Renal cell carcinoma", "description": "as §2, §3"}, "Hep G2/C3A": {"test_system": "Hep G2/C3A", "test": "CellTiter-Glo cytotoxicity, cancer cell line panel", "conditions": "HepG2/C3A, Hepatoblastoma carcinoma", "description": "as §2, §3"}, "HUH-7": {"test_system": "HUH-7", "test": "CellTiter-Glo cytotoxicity, cancer cell line panel", "conditions": "Homo sapiens; HUH-7, Hepatocellular carcinoma", "description": "as §2, §3"}, "A549": {"test_system": "A549", "test": "CellTiter-Glo cytotoxicity, cancer cell line panel", "conditions": "Homo sapiens; A549, Lung adenocarcinoma", "description": "as §2, §3"}, "DLD-1": {"test_system": "DLD-1", "test": "CellTiter-Glo cytotoxicity, cancer cell line panel", "conditions": "Homo sapiens; DLD-1, Colon adenocarcinoma", "description": "as §2, §3"}, "NCI-H1975": {"test_system": "NCI-H1975", "test": "CellTiter-Glo cytotoxicity, cancer cell line panel", "conditions": "Homo sapiens; NCI-H1975, Lung adenocarcinoma", "description": "as §2, §3"}, "SNU-475": {"test_system": "SNU-475", "test": "CellTiter-Glo cytotoxicity, cancer cell line panel", "conditions": "Homo sapiens; SNU-475, Hepatocellular carcinoma", "description": "as §2, §3"}, "Caki-2": {"test_system": "Caki-2", "test": "CellTiter-Glo cytotoxicity, cancer cell line panel", "conditions": "Homo sapiens; Caki-2, Papillary renal cell carcinoma", "description": "as §2, §3"}, "769-P": {"test_system": "769-P", "test": "CellTiter-Glo cytotoxicity, cancer cell line panel", "conditions": "Homo sapiens, Renal cell carcinoma", "description": "as §2, §3"}}, "data": [{"smiles": "N=C(N)c1ccc(OCCCCCOc2ccc(C(=N)N)nc2)cc1", "note": "[Compound 1, 5-(5-(4-carbamimidoylphenoxy)pentyloxy)picolinimidamide]", "values": [{"measurement": "IC50", "setting": "SK-HEP-1 [1]; SK-HEP1, SK-HEP-1, first listing in Table 4", "result": 1400, "unit": "nM"}, {"measurement": "IC50", "setting": "SK-HEP-1 [1]; SK-HEP1, SK-HEP-1, second listing in Table 4", "result": 630, "unit": "nM"}, {"measurement": "IC50", "setting": "HUH7", "result": 530, "unit": "nM"}, {"measurement": "IC50", "setting": "HCCLM3 [2]", "result": 9650, "unit": "nM"}, {"measurement": "IC50", "setting": "HEP3B2.7-1", "result": 320, "unit": "nM"}, {"measurement": "IC50", "setting": "HUH1", "result": 2950, "unit": "nM"}, {"measurement": "IC50", "setting": "MHCC97H", "result": 5320, "unit": "nM"}, {"measurement": "IC50", "setting": "Hep3B", "result": 180, "unit": "nM"}, {"measurement": "IC50", "setting": "HepG2", "result": 310, "unit": "nM"}, {"measurement": "IC50", "setting": "RBE", "result": 1400, "unit": "nM"}, {"measurement": "IC50", "setting": "HLF", "result": 2040, "unit": "nM"}, {"measurement": "IC50", "setting": "SK-HEP-1 [3]", "result": 4720, "unit": "nM"}, {"measurement": "IC50", "setting": "SNU-739", "result": 2230, "unit": "nM"}, {"measurement": "IC50", "setting": "PLC/PRF/5", "result": 4130, "unit": "nM"}, {"measurement": "IC50", "setting": "HCCLM3 [4]", "result": 12200, "unit": "nM"}, {"measurement": "IC50", "setting": "JHH-5", "result": 650, "unit": "nM"}, {"measurement": "IC50", "setting": "SNU-398", "result": 220, "unit": "nM"}, {"measurement": "IC50", "setting": "LNCaP clone FGC", "result": 1780, "unit": "nM"}, {"measurement": "IC50", "setting": "JHH-6", "result": 380, "unit": "nM"}, {"measurement": "IC50", "setting": "SK-OV-3", "result": 1170, "unit": "nM"}, {"measurement": "IC50", "setting": "OS-RC-2", "result": 1700, "unit": "nM"}, {"measurement": "IC50", "setting": "Hep G2/C3A", "result": 230, "unit": "nM"}, {"measurement": "IC50", "setting": "HUH-7", "result": 970, "unit": "nM"}, {"measurement": "IC50", "setting": "A549", "result": 370, "unit": "nM"}, {"measurement": "IC50", "setting": "DLD-1", "result": 3110, "unit": "nM"}, {"measurement": "IC50", "setting": "NCI-H1975", "result": 2660, "unit": "nM"}, {"measurement": "IC50", "setting": "SNU-475", "result": 1250, "unit": "nM"}, {"measurement": "IC50", "setting": "Caki-2", "result": 4180, "unit": "nM"}, {"measurement": "IC50", "setting": "769-P", "result": 1630, "unit": "nM"}]}]}
